Literature values as cited in US8633194B2, “Pharmaceutical composition of piperazine derivatives” (UCB Pharma, S.A., priority 2004, dated 2014).

Target: histamine H1-receptor (Homo sapiens, UniProt P35367)
Conditions: in vitro

Sequence of histamine H1-receptor (P35367 whole entry, species assumed): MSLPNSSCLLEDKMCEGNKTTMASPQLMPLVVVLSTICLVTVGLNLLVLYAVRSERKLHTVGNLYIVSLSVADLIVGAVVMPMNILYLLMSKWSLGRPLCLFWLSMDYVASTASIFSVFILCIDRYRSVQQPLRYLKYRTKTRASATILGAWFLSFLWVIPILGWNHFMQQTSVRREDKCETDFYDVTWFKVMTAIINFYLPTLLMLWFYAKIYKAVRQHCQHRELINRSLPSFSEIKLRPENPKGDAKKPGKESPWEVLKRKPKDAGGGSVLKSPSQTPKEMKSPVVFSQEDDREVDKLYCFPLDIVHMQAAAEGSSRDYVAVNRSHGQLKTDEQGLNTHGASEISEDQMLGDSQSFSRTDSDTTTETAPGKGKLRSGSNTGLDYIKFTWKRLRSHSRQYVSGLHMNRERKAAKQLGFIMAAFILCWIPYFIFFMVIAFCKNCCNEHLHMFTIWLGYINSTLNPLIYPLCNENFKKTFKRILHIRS

## O=C(O)COCCN1CCN(C(c2ccc(F)cc2)c2ccc(F)cc2)CC1 [Efletirizine, 2-[2-[4-[bis(4-fluorophenyl)methyl]-1-piperazinyl]ethoxy]acetic acid]
  Affinity for H1-receptors: high affinity
  Selectivity for H1-receptors: selectivity
